Measurements from patent US6008196A, “Perfluoroalkyl ketone inhibitors of elastase and processes for making the same” (Hoechst Marion Roussel, Inc., priority 1996, dated 1999).

Molecular target: T1, Human Neutrophil Elastase (Homo sapiens, UniProt P08246)
T1 construct: Enzyme is purified from human sputum, although recently it has become commercially available; from tissue; host or cells: human sputum
T1 sequence (P08246 30-247 limits assumed): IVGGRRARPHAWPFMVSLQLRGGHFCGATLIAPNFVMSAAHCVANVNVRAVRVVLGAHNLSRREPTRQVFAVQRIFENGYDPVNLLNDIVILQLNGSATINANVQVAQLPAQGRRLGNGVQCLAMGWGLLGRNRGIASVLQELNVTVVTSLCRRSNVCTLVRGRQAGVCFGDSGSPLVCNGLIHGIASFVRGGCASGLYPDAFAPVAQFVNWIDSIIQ
Assay: Human neutrophil elastase assayed in vitro with N-MeOSuc-Ala-Ala-Pro-Val-p-nitroanilide as substrate
Type: biochemical
Conditions: enzyme purified from human sputum
Experimental: Human neutrophil elastase is assayed in vitro using N-MeOSuc-Ala-Ala-Pro-Val-p-nitroanilide, available commercially, as substrate. […] Enzyme is purified from human sputum, although recently it has become commercially available. Kinetic characterization of immediate inhibitors is by means of the Dixon plot, whereas the characterization of slow- and/or tight-binding inhibitors used data analysis techniques reviewed by Williams and Morrison. The synthesis and analytical use of a highly sensitive and convenient substrate of elastase is described in J. Bieth, B. Spiess and C. […] For the purposes of this table, MCBz refers to 4-(4-morpholinylcarbonyl)benzoyl and Pyr refers to 3-(3-pyridyl)propanoyl.

Row | Compound | Ki [µM]
1 | CC(C)C(NC(=O)[C@@H]1CCCN1C(=O)[C@@H](NC(=O)OC(C)(C)C)C(C)C)C(=O)C(F)(F)C(F)(F)C(F)(F)C(F)(F)F (stereo partly drawn) [Boc--Val--Pro--Val--CF2 CF2 CF2 CF3, N-[(1,1-dimethylethoxy)carbonyl]-L-valyl-N'-[3,3,4,4,5,5,6,6,6-nonafluoro-1-(1-methylethyl)-2-oxohexyl]-L-prolinamide] | 0.59
2 | CC(C)C(NC(=O)[C@@H]1CCCN1C(=O)[C@@H](NC(=O)c1ccc(C(=O)N2CCOCC2)cc1)C(C)C)C(=O)C(F)(F)C(F)(F)C(F)(F)F (stereo partly drawn) [MCBz--Val--Pro--Val--CF2 CF2 CF3, N-[4-(4-morpholinylcarbonyl)benzoyl]-L-valyl-N'-[3,3,4,4,5,5,5-heptafluoro-1-(1-methylethyl)-2-oxopentyl]-L-prolinamide] | 0.018
3 | CC(C)C(NC(=O)[C@@H]1CCCN1C(=O)[C@@H](NC(=O)OC(C)(C)C)C(C)C)C(=O)C(F)(F)C(F)(F)C(F)(F)F (stereo partly drawn) [Boc--Val--Pro--Val--CF2 CF2 CF3, N-[(1,1-dimethylethoxy)carbonyl]-L-valyl-N'-[3,3,4,4,5,5,5-heptafluoro-1-(1-methylethyl)-2-oxopentyl]-L-prolinamide] | 0.49
